This is an account of results in PMC7854658, “Structural basis for ligand recognition of the neuropeptide Y Y2 receptor” (Nature Communications, 2021).

In one assay the test system is Y2R. More on the design: method as in earlier work. The note with it: ref Swanson, D.M. et al., Bioorg. Med. Chem. Lett. 21:5552-5556, 2011; read-out: Y2R affinity IC50; cited from earlier work.
Assay [1] addresses T1, wild-type Y2R (Homo sapiens, UniProt P49146).
T1 construct: expressed in transfected cells; host or cells: HEK293
T1 sequence (P49146 1-381): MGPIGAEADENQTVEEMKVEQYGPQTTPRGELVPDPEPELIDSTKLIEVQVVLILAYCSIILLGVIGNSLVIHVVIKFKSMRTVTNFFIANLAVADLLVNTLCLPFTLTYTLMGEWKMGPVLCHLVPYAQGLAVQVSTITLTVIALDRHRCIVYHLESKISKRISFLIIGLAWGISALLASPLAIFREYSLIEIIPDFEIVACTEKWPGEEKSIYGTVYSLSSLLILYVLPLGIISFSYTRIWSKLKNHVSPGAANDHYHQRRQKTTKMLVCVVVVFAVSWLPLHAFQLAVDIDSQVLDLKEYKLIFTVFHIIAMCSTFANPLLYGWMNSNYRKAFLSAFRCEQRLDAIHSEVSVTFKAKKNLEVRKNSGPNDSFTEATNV
In words: Dose-dependent inhibition of NPY (0.3 nM)-induced IP accumulation. The assay is classed as cell-based. The note with it: read-out: pIC50 ± SEM, inhibition of NPY-induced IP accumulation (converted). The protocol:
To determine the contribution of residues to antagonist binding, IP-One accumulation assays (Cisbio, Codolet, France) were performed. […] The cells were then reseeded into white 384-well microplates (Greiner Bio-One, Kremsmünster, Austria) at a density of 15,000 cells per well and grown for additional 24 h. […] Three microliters of both solutions were added, and the cells were incubated on a tumbler for 60 min.

For another assay, the target named is T2, Y2R mutant Q130^3.32H (Homo sapiens, UniProt P49146, Q130H).
T2 construct: expressed in transfected cells; host or cells: HEK293
T2 sequence (P49146 whole entry Q130H): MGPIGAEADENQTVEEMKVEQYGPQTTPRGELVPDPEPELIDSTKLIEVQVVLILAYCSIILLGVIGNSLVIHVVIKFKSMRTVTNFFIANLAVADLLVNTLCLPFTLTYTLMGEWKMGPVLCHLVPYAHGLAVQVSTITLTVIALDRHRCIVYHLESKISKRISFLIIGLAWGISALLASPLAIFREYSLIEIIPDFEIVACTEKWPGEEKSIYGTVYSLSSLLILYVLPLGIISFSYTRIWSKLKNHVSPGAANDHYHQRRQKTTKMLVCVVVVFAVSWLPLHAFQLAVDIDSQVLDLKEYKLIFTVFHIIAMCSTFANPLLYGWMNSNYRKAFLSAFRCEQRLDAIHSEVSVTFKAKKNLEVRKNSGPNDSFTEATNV
The experiment in a line: NPY-induced IP accumulation (IP-One), mutant. Type of assay: cell-based. The note with it: 1 μM antagonist. The protocol: The plasmid hY2R_eYFP_pVitro2 encoding the WT Y2R and a fluorophore for investigating the receptor localization was used as template for the generation of receptor point mutations as previously described. Mutagenesis PCR was performed using the Phusion High-Fidelity Polymerase (Thermo Fisher Scientific, Waltham, MA, USA). […] The preparations of the plasmid DNA were performed using the Wizard plus Mini or Midi DNA purification kit (Promega, Madison, WI, USA).
(§1) To determine the contribution of residues to antagonist binding, IP-One accumulation assays (Cisbio, Codolet, France) were performed. HEK293 cells were seeded into six-well plates and transiently cotransfected with 3200 ng of receptor plasmid DNA and 800 ng of the chimeric G protein (Gα∆6qi4myr) to redirect the Gαi signaling pathway to the Gαq phospholipase C pathway. Transient transfection was carried out using Metafectene as transfection reagent according to the manufacturer’s protocol (Biontex, Munich, Germany) over night. The cells were then reseeded into white 384-well microplates (Greiner Bio-One, Kremsmünster, Austria) at a density of 15,000 cells per well and grown for additional 24 h.
All dilutions were performed in HBSS containing 20 mM LiCl (stimulation buffer) and DMSO with a final concentration of 0.01%.
To determine the amount of cellular IPs, the FRET acceptor (IP1-d2) and the FRET donor (anti-IP1-Cryptate) were reconstituted and diluted in lysis and detection buffer (1:20) as described in the manufacturer’s protocol. Three microliters of both solutions were added, and the cells were incubated on a tumbler for 60 min.

Assay [2] deals with T3, Y2R crystallization construct without flavodoxin in ICL3 (construct_no flavodoxin) (Homo sapiens, UniProt P49146, H149Y/S280C).
T3 construct: expressed in transfected cells; host or cells: HEK293
T3 sequence (P49146 1-353 H149Y/S280C): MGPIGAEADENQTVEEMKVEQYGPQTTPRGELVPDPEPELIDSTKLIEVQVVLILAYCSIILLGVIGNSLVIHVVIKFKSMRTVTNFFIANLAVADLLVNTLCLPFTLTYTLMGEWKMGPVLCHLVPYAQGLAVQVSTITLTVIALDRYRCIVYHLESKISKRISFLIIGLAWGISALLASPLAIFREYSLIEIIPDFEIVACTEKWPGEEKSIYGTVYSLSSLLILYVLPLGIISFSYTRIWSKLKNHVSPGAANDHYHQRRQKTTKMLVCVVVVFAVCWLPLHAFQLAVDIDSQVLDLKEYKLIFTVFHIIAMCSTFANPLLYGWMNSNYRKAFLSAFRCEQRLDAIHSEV
The experiment in a line: Dose-dependent inhibition of NPY (0.3 nM)-induced IP accumulation. The note with it: read-out: pIC50 ± SEM, inhibition of NPY-induced IP accumulation (converted). Type of assay: cell-based. The method, then:
as §1, with “([…])” for “(Gα∆6qi4myr)”, “manufacturer's” for “manufacturer’s”, “h. […] The cells were stimulated at 37 °C and 5% CO2 in humidified atmosphere for 90 min. The exact value of the effective concentration (ECx) at the day of the assay was determined by control curves in the absence of antagonist. To determine the amount of cellular IPs, the FRET acceptor (IP1-d2) and the FRET donor (anti-IP1-Cryptate) were reconstituted and diluted in lysis and detection buffer (1:20) as described in the manufacturer's protocol. Three microliters of both solutions were added, and the cells were incubated on a tumbler for 60 min.” for “h.”

Another assay relates to NPY receptors. The note with it: cited from earlier work.
Assay [3] deals with T1, wild-type Y2R. The experiment in a line: NanoBRET-based binding assay (K18(TAMRA)-NPY). The note with it: read-out: pIC50 ± SEM, NanoBRET binding (converted). The method, then:
(§2) For this purpose, a Nanoluciferase[44] (Promega, Madison, WO, USA) followed by a flexible […] terminus of the receptor in an Y2-eYFP_N1 vector[45]. The Nanoluciferase replaced the similarly sized N-terminal T4L fusion in the crystallization construct. To facilitate correct expression of this large N-terminal domain and export to the plasma membrane, a signal sequence of human interleukin 6 ([…]) was used[44]. HEK293 cells were transiently transfected with 8 μg of the corresponding vectors per T75 flask using MetafectenePro (Biontex) following the manufacturer's instructions. Twenty-four hours post transfection, the cells were harvested in PBS (-Ca^2+; -Mg^2+) and frozen (-80 °C). The membranes were prepared as described previously. Briefly, the cells were lysed in a hypotonic TRIS buffer (50 mM Tris-HCl, pH 7.5 and 50 μM Pefabloc SC) and homogenized using a manual dounce homogenizer for 15 times. Nuclei and cell debris was removed by centrifugation at 820 × g for 10 min (4 °C), and the microsomal membranes in the supernatant were collected by centrifugation at 20,000 × g for 60 min (4 °C). […] The total protein amount was determined by a Bradford assay. The membrane preparations were stored in aliquots at -80 °C. […] Directly before the measurement, 10 μl coelenterazine H in HBSS/HEPES was added to a final concentration of 4 μM. […] The BRET ratio was calculated by the ratio of F/L, and corrected by the background values. The IC50 values were determined using a three-parameter logistic fit in the GraphPad Prism 5 software (GraphPad Software, San Diego, CA, USA).

The target in assay [4] is T4, modified Y2R used for crystallization without N-terminal T4L (Construct_no T4L) (Homo sapiens, UniProt P49146, DEL251-256/H149Y/S280C).
T4 construct: eYFP (from the vector name) (C); expressed in transfected cells; host or cells: HEK293 (membrane preparations)
T4 sequence (P49146 with tags, fused parts or gaps H149Y/DEL251-256/S280C): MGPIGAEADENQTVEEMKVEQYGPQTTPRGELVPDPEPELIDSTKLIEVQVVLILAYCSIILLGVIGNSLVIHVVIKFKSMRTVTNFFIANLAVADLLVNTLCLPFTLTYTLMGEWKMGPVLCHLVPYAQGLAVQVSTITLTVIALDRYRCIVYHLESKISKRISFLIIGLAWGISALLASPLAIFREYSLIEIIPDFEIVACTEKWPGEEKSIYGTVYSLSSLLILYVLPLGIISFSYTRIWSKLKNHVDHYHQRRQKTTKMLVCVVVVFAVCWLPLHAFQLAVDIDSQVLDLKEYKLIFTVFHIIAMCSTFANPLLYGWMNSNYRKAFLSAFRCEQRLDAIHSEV
The experiment in a line: NanoBRET-based binding assay (K18(TAMRA)-NPY). The note with it: 300 nM K18(TAMRA)-NPY. The protocol: as §2

Assay [5] concerns the target Y2R mutant D292^6.59N (hY2R_eYFP_pVitro2) (human) (UniProt P49146).
The target in assay [6] is Y2R mutant Y110^2.64A (hY2R_eYFP_pVitro2) (human) (UniProt P49146).
Assay [7] has as its target wild-type human Y2R with C-terminal eYFP (hY2R_eYFP_pVitro2) (human) (UniProt P49146).
Assay [8] has as its target Y2R mutant Q130^3.32H (hY2R_eYFP_pVitro2) (human) (UniProt P49146).

Read-outs that look alike come from different tables or passages of the source.

Turning to `CCN(CC)C(=O)C(c1ccccc1)N1CCN(c2ccc(NC(=O)c3ccccc3-c3cccnc3)cc2F)CC1` (single isomer, unassigned) [R-isomer], in the assay on Y2R, the IC50 is 9 ± 2 nM.
Consider `CCN(CC)C(=O)C(c1ccccc1)N1CCN(c2ccc(NC(=O)c3ccccc3-c3cccnc3)cc2F)CC1` (single isomer, unassigned) [S-isomer], for which the IC50 with Y2R was 14 ± 3 nM.
As for `CCN(CC)C(=O)C(c1ccccc1)N1CCN(c2ccc(NC(=O)c3ccccc3-c3cccnc3)cc2F)CC1` (stereo not shown) [JNJ-31020028, N-(4-{4-[2-(diethylamino)-2-oxo-1-phenylethyl]piperazin-1-yl}-3-fluorophenyl)-2-pyridin-3-ylbenzamide], the IC50 was 47.9 nM at wild-type Y2R [1]; 60.3 nM in [2]; 1.29 nM at wild-type Y2R [3]; 0.7 nM in assay [4] (read-out: IC50, NanoBRET binding); 0.676 nM in assay [4] (read-out: pIC50 ± SEM, NanoBRET binding (converted)). Moreover, the “Antagonistic activity compared to WT (in words)” value at Y2R mutant Q130^3.32H was “increased antagonistic activity”. In the assay on NPY receptors, the “Higher binding affinity to Y2R over the other NPY receptors” value was “over 100 fold”.
Take “neuropeptide Y (NPY) (from UniProt P01303 29-64)”: in assay [5], the fold change of the EC50 of NPY in triggering Y2R signaling (IP accumulation) against the wild-type Y2R was found to be 233 fold. Moreover, the EC50 of NPY-induced IP accumulation (IP-One assay, HEK293 cells with chimeric G protein) was found to be 1.8 nM in [6] and 0.06 nM in [7]. The same compound came in with a fold change of the EC50 of NPY-induced receptor signaling (IP accumulation) against the wild-type Y2R in assay [8] of 132 fold.
